Results as given in patent US11034700B2, “Substituted pyrrolidine compound and use thereof” (Takeda Pharmaceutical Company Limited, priority 2017, dated 2021).

Biological target: T1, human OX2 receptor (Homo sapiens, UniProt O43614)
T1 construct: expressed in transfected cells
T1 sequence (O43614 1-444): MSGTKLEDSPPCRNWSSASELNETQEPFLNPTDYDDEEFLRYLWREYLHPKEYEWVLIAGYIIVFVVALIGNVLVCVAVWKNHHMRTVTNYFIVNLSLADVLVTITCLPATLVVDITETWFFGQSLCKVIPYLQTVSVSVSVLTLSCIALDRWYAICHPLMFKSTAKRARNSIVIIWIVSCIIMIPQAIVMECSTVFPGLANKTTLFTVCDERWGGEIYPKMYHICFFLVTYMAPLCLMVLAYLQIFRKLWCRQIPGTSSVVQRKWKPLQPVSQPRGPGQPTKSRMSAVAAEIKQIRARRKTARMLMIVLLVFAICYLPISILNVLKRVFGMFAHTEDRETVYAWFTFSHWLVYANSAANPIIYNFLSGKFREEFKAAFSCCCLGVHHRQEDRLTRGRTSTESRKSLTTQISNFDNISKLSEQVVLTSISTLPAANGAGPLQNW
Assay: Measurement of orexin type 2 receptor agonist activity (Fluo-4 calcium fluorescence, FDSS)
Format: cell-based
Details: compound at 3 μM; CHO cells forcibly expressing human OX2 receptor; DMSO = 0%, orexin A (human) 10 nM = 100%
Source text: Experimental Example 1: Obtainment of Cell Stably Expressing Human Orexin Type 2 Receptor (hOX2R)
To obtain a cell clone stably expressing human orexin type 2 receptor, human orexin type 2 receptor cDNA was inserted into pcDNA3.1(+) plasmid vector (Invitrogen), and a plasmid DNA for expression of human orexin type 2 receptor (pcDNA3.1(+)/hOX2R) was cloned. The plasmid DNA was introduced into CHO-dhfr cell by an electroporation method, and human orexin type 2 receptor expressing clone cells were obtained by limiting dilution method by using G418 drug resistance as a selection marker.
Experimental Example 2: Measurement of Orexin Type 2 Receptor Agonist Activity
CHO cells forcibly expressing human OX2 receptor were seeded in each well of 384 well black transparent bottom plate (BD Falcon) at 7,500 cells/well, and cultured for one day in a 5% CO2 incubator at 37° C. After removal of the medium in the cell plate, assay buffer A containing a calcium indicator (HESS (Life Technologies), 20 mM HEPES (Life Technologies), 0.1% BSA (Wako Pure Chemical Industries, Ltd.), 2.5 μg/mL Fluo-4 AM (DOJINDO Chemical), 0.08% Pluronic F127 (DOJINDO Chemical), 1.25 mM probenecid (DOJINDO Chemical)) was added at 30 μL/well. The plate was stood for 30 min in a 5% CO2 incubator at 37° C., and further stood at room temperature for 30 min. A test compound prepared by diluting with assay buffer B (HESS, 20 mM HEPES, 0.1% BSA) was added at 10 μL/well, and the fluorescence value was measured by FDSSμCELL (Hamamatsu Photonics K.K.) every one sec for 1 min, and thereafter every two sec for 1 min 40 sec. The activity (%) of the test compound was calculated assuming that variation in the fluorescence value when DMSO was added instead of the test compound was 0% […], and variation in the fluorescence value when orexin A (human) (PEPTIDE INSTITUTE, INC.) was added at the final concentration of 10 nM was 100% […]. The activity of each compound at the concentration of 3 μM was shown below.

| OX2R agonist activity (3 μM, %) | SMILES |
| --- | --- |
| 92% | COc1ccc(-c2cccc(C(=O)N(C)C)c2)cc1S(=O)(=O)Nc1cccc(O[C@H]2CCN(C(=O)c3cc(C)ccc3C)C2)c1 [Example 32, 3′-((3-(((3S)-1-(2,5-dimethylbenzoyl)pyrrolidin-3-yl)oxy)phenyl)sulfamoyl)-4′-methoxy-N,N-dimethylbiphenyl-3-carboxamide] |
| 101% | COc1ccc(-c2cccc(C(=O)N(C)C)c2)cc1S(=O)(=O)Nc1cccc(O[C@H]2CCN(C(=O)c3cccc4c3OCC4)C2)c1 [Example 28, 3′-((3-(((3S)-1-(2,3-dihydro-1-benzofuran-7-ylcarbonyl)pyrrolidin-3-yl)oxy)phenyl)sulfamoyl)-4′-methoxy-N,N-dimethylbiphenyl-3-carboxamide] |
| 88% | COc1ccc(-c2cccc(C(=O)N(C)C)c2)cc1S(=O)(=O)Nc1cccc(O[C@H]2CCN(C(=O)c3cccnc3C(F)(F)F)C2)c1 [Example 23, 4′-methoxy-N,N-dimethyl-3′-((3-(((3S)-1-((2-(trifluoromethyl)pyridin-3-yl)carbonyl)pyrrolidin-3-yl)oxy)phenyl)sulfamoyl)biphenyl-3-carboxamide] |
| 90% | COc1ccc(-c2cccc(C(=O)N(C)C)c2)cc1S(=O)(=O)Nc1cccc(OC2CCN(C(=O)c3cccc(C)c3)C2)c1 (stereo not drawn) [Example 2, 4′-methoxy-N,N-dimethyl-3′-((3-((1-(3-methylbenzoyl)pyrrolidin-3-yl)oxy)phenyl)sulfamoyl)bipheny-3-carboxamide] |
| 97% | COc1ccc(-c2cccc(C(=O)N(C)C)c2)cc1S(=O)(=O)Nc1cccc(O[C@H]2CCN(C(=O)c3ccc(C)cc3C)C2)c1 [Example 25, 3′-((3-(((3S)-1-(2,4-dimethylbenzoyl)pyrrolidin-3-yl)oxy)phenyl)sulfamoyl)-4′-methoxy-N,N-dimethylbiphenyl-3-carboxamide] |

Second part, the compound before the results:

| SMILES | OX2R agonist activity (3 μM, %) |
| --- | --- |
| COc1ccccc1S(=O)(=O)Nc1cncc(O[C@@H]2CN(C(=O)c3cc(C)ccc3C)C[C@H]2OC)c1 (relative stereo) [Example 106, trans-N-(5-((1-(2,5-dimethylbenzoyl)-4-methoxypyrrolidin-3-yl)oxy)pyridin-3-yl)-2-methoxybenzenesulfonamide] | 104% |
| COc1ccc(C2CCCCN2C(C)=O)cc1S(=O)(=O)Nc1cccc(O[C@H]2CCN(C(=O)c3c(C)cccc3C)C2)c1 (stereo partly drawn) [Example 33, 5-(1-acetylpiperidin-2-yl)-N-(3-(((3S)-1-(2,6-dimethylbenzoyl)pyrrolidin-3-yl)oxy)phenyl)-2-methoxybenzenesulfonamide] | 89% |
| COc1ccccc1S(=O)(=O)Nc1cccc(O[C@H]2CCN(C(=O)c3cc(C)ccc3C)C2)c1 [Example 62, N-(3-(((3S)-1-(2,5-dimethylbenzoyl)pyrrolidin-3-yl)oxy)phenyl)-2-methoxybenzenesulfonamide] | 69% |
| COc1ccccc1S(=O)(=O)Nc1cccc(O[C@@H]2CN(C(=O)c3cc(C)ccc3C)C[C@H]2OC)c1C (relative stereo) [Example 103, trans-N-(3-((1-(2,5-dimethylbenzoyl)-4-methoxypyrrolidin-3-yl)oxy)-2-methylphenyl)-2-methoxybenzenesulfonamide] | 80% |
| COc1ccccc1S(=O)(=O)Nc1cccc(O[C@@H]2CN(C(=O)c3cc(C)ccc3C)C[C@H]2F)c1 (relative stereo) [Example 107, trans-N-(3-((1-(2,5-dimethylbenzoyl)-4-fluoropyrrolidin-3-yl)oxy)phenyl)-2-methoxybenzenesulfonamide] | 77% |
| COc1ccccc1S(=O)(=O)Nc1cccc(O[C@@H]2CN(C(=O)c3c(C)cccc3OC)C[C@H]2OC)c1 [Example 97, 2-methoxy-N-(3-(((3R,4R)-4-methoxy-1-(2-methoxy-6-methylbenzoyl)pyrrolidin-3-yl)oxy)phenyl)benzenesulfonamide] | 93% |
| COc1ccccc1S(=O)(=O)Nc1cccc(O[C@@H]2CN(C(=O)c3cc(C)ccc3C)C[C@H]2OC)c1 [Example 63, N-(3-(((3R,4R)-1-(2,5-dimethylbenzoyl)-4-methoxypyrrolidin-3-yl)oxy)phenyl)-2-methoxybenzenesulfonamide] | 112% |
| COc1ccccc1S(=O)(=O)Nc1cccc(O[C@@H]2CN(C(=O)c3cc(C)ccc3C)C[C@H]2OC)c1F (relative stereo) [Example 87, trans-N-(3-((1-(2,5-dimethylbenzoyl)-4-methoxypyrrolidin-3-yl)oxy)-2-fluorophenyl)-2-methoxybenzenesulfonamide] | 103% |
| COc1ccccc1S(=O)(=O)Nc1ccnc(O[C@@H]2CN(C(=O)c3cc(C)ccc3C)C[C@H]2OC)c1 (relative stereo) [Example 101, trans-N-(2-((1-(2,5-dimethylbenzoyl)-4-methoxypyrrolidin-3-yl)oxy)pyridin-4-yl)-2-methoxybenzenesulfonamide] | 95% |
| CO[C@@H]1CN(C(=O)c2c(C)cccc2C)C[C@H]1Oc1cccc(NS(=O)(=O)c2sccc2Cl)c1F (relative stereo) [Example 111, trans-3-chloro-N-(3-((1-(2,6-dimethylbenzoyl)-4-methoxypyrrolidin-3-yl)oxy)-2-fluorophenyl)thiophene-2-sulfonamide] | 52% |
